Where two headings read alike, the source gives them in different places.
Assays:
Hep G2 cells [1] = assay: Growth inhibition of Hep G2 cells (cell number and DNA content, 5 days); format: cell-based; details: Homo sapiens, read-out: IC50 (50% growth inhibition)
Procedure: (§1) The replication-defective, full length, artificial retroviruses containing the AFP/VZV TK chimaera were used to infect a human hepatoma cell line called Hep G2 (ATCC KS 8065). Following infection and selection on 1mg geneticin/ml (Trade mark), the cells were assayed for VZV TK activity. In addition, the cells were incubated in the presence of (^3H) labeled 9-(B-D-arabinofuranosyl)-6-methoxy-9H purine (designated as ara-M in the following tables and figures) with subsequent measurement of ara ATP. Finally, cells were cultured in the presence of the above mentioned compound and the IC50 - (growth inhibition) was determined. Cells infected with no virus or N2 virus act as control samples for these experiments. N2 virus contain no VZV TK genetic material.
Hep G2 cells infected with the replication-defective, full length, artificial retroviruses containing the AFP/VZV TK (pCR78) chimaera were incubated in the presence of varying amounts of 9-(B-D-arabinofuranosyl)-6-methoxy-9H purine for 5 days and growth inhibition determined as measured by cell number and DNA content.

Hep G2 cells [2] = assay: ara ATP formation from (3H) labelled ara-M in infected Hep G2 cells; format: cell-based, human; details: Hep G2 cells infected with pCR78 containing viruses, incubated with (3H) labelled compound; Figure 6
Procedure: as §1
9-(B-D-arabinofuranosyl)-6-methoxy-9H purine (designated as ara-m) can be selectively monophosphorylated by VZV TK with subsequent anabolism to cytotoxic ara ATP.

In the case of `COc1ncnc2c1ncn2[C@@H]1O[C@H](CO)[C@@H](O)[C@@H]1O` [9-(β-D-arabinofuranosyl)-6-methoxy-9H-purine], the IC50 (Hep G2 cells [1]; HepG2, 120 h, Hep G2 cells infected with AFP/VZV TK (pCR78) retrovirus, 5 days) is reported as 175 µM, the IC50 (Hep G2 cells [1]; HepG2, 120 h, Hep G2 cells infected with N2 virus (no VZV TK), 5 days) is reported as greater than 2000 µM and the IC50 (Hep G2 cells [1]; HepG2, 120 h, control Hep G2 cells, no virus, 5 days) is reported as greater than 2000 µM. The IC50 (Hep G2 cells [1]; HepG2, single cell clones of Hep G2 cells containing the AFP/VZV TK (pCR78) chimaera) was roughly 40 µM and the “(3H) araATP formation” value (Hep G2 cells [2]) was “significant amounts”.

— patent EP0415731B1, “Novel entities for cancer therapy” (THE WELLCOME FOUNDATION LIMITED, priority 1989, dated 1991)
